In patent US7691564B2, “Heterotrimeric G-protein” (The Johns Hopkins University, priority 2000, dated 2010):
pEC50, pKd: −log10 of the molar value. Read-outs that look alike come from different tables or passages of the source.

How the values were obtained:
cAR1 = target: T1, cAR1 (Dictyostelium discoideum, UniProt P13773); conditions: cited from earlier work; for pKd: literature ref 16, read-out: reported binding affinity (average KD)
T1 sequence (P13773 1-392): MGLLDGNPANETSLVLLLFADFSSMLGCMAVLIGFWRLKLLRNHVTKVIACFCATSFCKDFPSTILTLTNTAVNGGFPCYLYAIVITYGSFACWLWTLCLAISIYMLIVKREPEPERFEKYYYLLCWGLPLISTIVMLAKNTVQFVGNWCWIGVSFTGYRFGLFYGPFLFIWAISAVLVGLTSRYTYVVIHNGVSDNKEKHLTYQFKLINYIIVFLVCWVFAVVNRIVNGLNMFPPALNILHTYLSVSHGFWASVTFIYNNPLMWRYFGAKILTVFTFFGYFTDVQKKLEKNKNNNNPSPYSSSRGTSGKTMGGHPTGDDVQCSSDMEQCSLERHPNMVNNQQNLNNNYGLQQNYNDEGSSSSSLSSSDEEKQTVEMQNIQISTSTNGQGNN

[1] = tested on: G-protein heterotrimer (Gα2-CFP:Gβ-YFP) linked to cAMP chemoattractant receptors; test: FRET loss in living α2-CFP:β-YFP cells (fluorimeter); format: cell-based, D. discoideum; conditions: for pEC50: read-out: EC50 for decrease of the FRET signal
Description: (§1) FIGS. 2A to 2E. Fluorescence spectra of cell lines. (FIG. 2A) Developed cells were excited in a Spex Fluoromax-2 fluorimeter at 440 nm and emission was collected between 460 nm and 600 nm and processed as described (14). Gα2-CFP/g α2^− cells (“α2-CFP”), α2-CFP: β-YFP cells (“α2-CFP: -YFP”), and mixture of equal number of Ga-2-CFP/gα2^− and G β-YFP/g βcells (“mixed cells”). […] Cells were scanned at selected time points following addition of the stimulus. […] Mean intensities were calculated in IPLab Spectrum by manually circumscribing the membrane of multiple cells. […] Arrows indicate the frame at which the stimulus was added. (FIG. 2E) Difference images of consecutive frames of one captured at 3 second intervals were calculated in IPLab Spectrum. […] Calibration bar is 10 μm.
FIGS. 3A to 3B. […] Data was processed as described (34). […] Data from two independent experiments were averaged for each curve.
We excited living, differentiated cells at 440 nm and recorded the emission spectrum between 460 and 600 nm.
• 1. A. G. Gilman, Annu Rev Biochem 56, 615-49 (1987). • 2. H. E. Hamm, J Biol Chem 273, 669-72 (1998). • 3. C. A. Parent, B. J. Blacklock, W. M. Froehlich, D. B. Murphy, P. N. Devreotes, Cell 95, 81-91 (1998). • 4. Z. Xiao, N. Zhang, D. B. Murphy, P. N. Devreotes, J Cell Biol 139, 365-74 (1997). • 5. G. Servant et al., Science 287, 1037-40 (2000). • 6. T. Jin, N. Zhang, Y. Long, C. A. Parent, P. N. Devreotes, Science 287, 1034-6 (2000). • 7. R. Heim, R. Y. Tsien, Curr Biol 6, 178-82 (1996). • 8. The coding region of the β-YFP fusion protein was cloned into the CV5 vector. CV5 was derived from p88 by addition of an actin 15/expression cassette from pMC34 (3). • 9. D. G. Lambright et al., Nature 379, 311-9 (1996). • 10. M. A. Wall et al., Cell 83, 1047-58 (1995) • 11. A. Kumagai et al., Cell 57, 265-75 (1989). • 12. The gene encoding CFP was inserted into a Spe1 site after residue 90, in the loop between the αA and the αB helices, of the Gα2 cDNA. The SpeI site also added a threonine and serine residue at the N and C terminal loundaries of the insertion. This fusion was cloned into the CV5 vector. The gα2^− cells were transformed, and individual G418 resistant clones were selected. […] Equal amounts of plasmids carrying the Gα2-CFP and Gβ-YFP fusions were mixed, transformed into gα2 cells, and individual G418 resistant clones were selected.

[2] = target: T2, G-protein heterotrimer (Gα2-CFP:Gβ-YFP) (Dictyostelium discoideum, UniProt P16051, INS90[…]); test: FRET signal in membranes prepared from α-CFP:β-YFP cells; format: biochemical, D. discoideum
T2 construct: expressed in transfected cells; host or cells: D. discoideum gα2-null cells (α-CFP:β-YFP cells), CV5 vector, G418-selected clones; living cells in A1 and A3, membranes prepared from them in A4

[3] = tested on: PH-domain recruitment to membranes; test: PH domain (PHCRAC-GFP) binding to membranes in cell lysates; format: biochemical, D. discoideum
Description: FIGS. 4A to 4C. Continuous activation of the G-protein cycle. […] (FIG. 4B) Receptor regulation of PH domain translocation. […] After 2 minutes membranes were collected and binding of the PHCRAC-GFP was assessed by immunoblot analysis using antibodies to GFP (22). (FIG. 4C) Assessment of cAR1 phosphorylation.

[4] = tested on: G-protein heterotrimer (Gα2-CFP:Gβ-YFP) in α-CFP:β-YFP cells; conditions: saturating dose, within 6 seconds
Description: as §1

[5] = α2-CFP:β-YFP cells, caffeine treated, 10 mM dithiothreitol

Nc1ncnc2c1ncn2C1CC2OP(=O)(O)OCC2O1 (stereo not shown) [2′-dcAMP]
pKd (cAR1): ~6.00 | pEC50 [1, 5]: ~7.70

Nc1ncnc2c1ncn2[C@@H]1O[C@H](COP(=O)(O)O)[C@@H](O)[C@H]1O [5′-AMP]
binding to cAR1 (cAR1): does not bind to cAR1 | effect on the FRET signal ([1]; 1 mM): no effect on the FRET signal

Nc1ncnc2c1nc(Br)n2[C@@H]1O[C@@H]2COP(=O)(O)O[C@H]2[C@H]1O [8-Br-cAMP]
pKd (cAR1): ~4.49 | pEC50 [1, 5]: ~5.70

Nc1nc2c(ncn2[C@@H]2O[C@H](COP(=O)(O)OP(=O)(O)OP(O)(O)=S)[C@@H](O)[C@H]2O)c(=O)[nH]1 [GTPγS]
FRET signal of membranes ([2]; GTPγS alone (data not shown)): not with GTPγS alone | FRET signal of membranes ([2]; Mg++ plus GTPγS (data not shown)): disappeared | binding of PH-domains to membranes ([3]; lysates from adapted cells (cAMP 15 minutes)): this response was lost | binding of PH-domains to membranes ([3]; lysates from naive cells): stimulated the binding of PH-domains to membranes

Nc1ncnc2c1ncn2C1OC2COP(=O)(O)OC2C1O (stereo not shown) [cAMP, cyclic adenosine 3′, 5′ phosphate]
FRET signal remaining, % of the initial value [1]: ~20% | change in FRET after adjusting to 10 μM [1]: further decrease in FRET | decrease of the FRET signal [1]: approximately 70% | duration of activation [1]: Activation did not subside | response as % of the maximum [1]: 90% | time for the FRET signal to return to its maximal level [1]: within two minutes | time to maximal response after stimulation [1]: ≤ 10 s | pEC50 [1]: ~8.00 | decrease of the membrane FRET signal [4]: about 15%
